Laboratory results taken from the SangsterLogP compilation.

Experiment: method code SF-AS, from DOI: 10.1016/0223-5234(96)88212-2
Conditions: pH 7.4

Row | logD | SMILES
1 | 3.35 | Clc1ccccc1N1CCN(CCn2nnc3ccccc32)CC1
2 | 3.6 | Clc1ccccc1N1CCN(CCCOn2nnc3ccccc32)CC1
